Literature values in article PMC12281572.
“And” between values parts separate entries of the source, which are not always exact repeats. Equal entries are not always repeated.

Experiment: FTIR, 4-fluorophenol as donor (the pK_BHX database, per the paper)
Settings: CCl4; 25 C

| SMILES | pK_BHX (log10 Kf of the 1:1 H-bond complex with 4-fluorophenol, by FTIR) |
| --- | --- |
| O | 0.65 log units |
| CCCC[N+](CCCC)(CCCC)[N-]C#N | 3.24 log units |
| FC1CCCCC1 | 0.09 log units |
| c1cscn1 | 1.37 log units |
| CC(=O)c1cccc(C(F)(F)F)c1 | 0.72 log units |
| N | 1.74 log units |
| Brc1ccccc1 | -0.66 log units and -0.92 log units |
| CC(=O)c1ccc(N(C)C)cc1 | 1.76 log units |
| C1CCOC1 | 1.28 log units |
| COc1cccc(C)c1 | 0.05 log units |
| IC12CC3CC(CC(C3)C1)C2 | -0.19 log units |
| COc1ccc(C#N)cc1 | 0.97 log units |
| CC(C)(C)C(=O)N(C1CCCCC1)C1CCCCC1 | 2.06 log units |
| CC(=Nc1ccc(Br)cc1)Nc1ccc(C)cc1 | 1.58 log units |
| CC(=O)C12CC3CC(CC(C3)C1)C2 | 1.3 log units |
| C=CCNC | 2.0 log units |
| CNC(C)=O | 2.3 log units |
| CC(=Nc1ccccc1)Nc1ccc(C)cc1 | 1.85 log units |
| CN1CCCC1 | 2.19 log units |
| CN1C(C)(C)CCCC1(C)C | 1.23 log units |
| C=Cn1ccnc1 | 2.35 log units |
| CC(C)c1ccccc1 | -0.34 log units |
| CC(C)=O | 1.18 log units |
| CN(C)c1ccncc1 | 2.8 log units |
| c1ccc(C2CC2)cc1 | -0.37 log units |

| SMILES | pK_BHX (log10 Kf of the 1:1 H-bond complex with 4-fluorophenol, by FTIR) |
| --- | --- |
| C1CCOCC1 | 1.23 log units |
| CCN(CC)C(=O)c1cccnc1 | 1.98 log units and 1.63 log units |
| CCN(CC)CC | 1.98 log units |
| COc1ccc(OC)cc1 | 0.12 log units |
| BrC1CC1 | -0.47 log units |
| Cc1ccccc1C | -0.27 log units |
| COc1ccccc1C=O | 1.11 log units |
| CC(=O)c1cccc(Cl)c1 | 0.82 log units |
| CSC | 0.12 log units |
| Cc1ccncc1 | 2.07 log units |
| CCN(CC)C(=O)N(c1ccccc1)c1ccccc1 | 2.07 log units |
| Fc1ccc(N=C(Nc2ccccc2)c2ccccc2)cc1 | 1.25 log units |
| CC1(C)CCCC(C)(C)N1 | 1.88 log units |
| CCCCO | 1.02 log units |
| Cc1ccc(N=C(c2ccccc2)N(C)c2ccc(Br)cc2)cc1 | 1.42 log units |
| O=S1(=O)CCCC1 | 1.17 log units |
| CN(C)C(=O)c1ccc(Br)cc1 | 2.07 log units |
| ClCCCCCl | -0.47 log units |
| Cn1cccn1 | 1.84 log units |
| NCc1cccc(C(F)(F)F)c1 | 1.43 log units |
| N#Cc1ccc(C(F)(F)F)cc1 | 0.54 log units |
| CN=C(c1ccc(Br)cc1)N(C)C | 2.19 log units |
| CC(=O)c1ccc(C(C)(C)C)cc1 | 1.25 log units |
| CCN(CC)C(=O)C(F)(F)F | 1.06 log units |
| CCCCCCCCN(CCCCCCCC)CCCCCCCC | 1.57 log units |

| SMILES | pK_BHX (log10 Kf of the 1:1 H-bond complex with 4-fluorophenol, by FTIR) |
| --- | --- |
| Nc1ncccn1 | 1.55 log units |
| CC(C)(C)C#N | 0.99 log units |
| CCOc1ccccc1 | -0.01 log units |
| CNCCNC | 2.29 log units |
| O=c1c(-c2ccccc2)c1-c1ccccc1 | 2.3 log units |
| CN=C(N(C)C)N(C)C | 3.16 log units |
| CC(=O)c1ccccc1 | 1.11 log units |
| Cc1cc(=O)cc(C)o1 | 2.5 log units |
| O=CN1CCOCC1 | 1.93 log units |
| CN(C)Cc1ccccc1 | 1.59 log units |
| Fc1ccccn1 | 0.95 log units |
| COc1ccc(N(C)C(=Nc2ccc(Br)cc2)c2ccccc2)cc1 | 1.23 log units |
| Cc1cc[n+]([O-])cc1 | 3.12 log units |
| CN(C)C=NC(=S)SCc1ccccc1 | 1.1 log units |
| CC(=O)c1cccc(C(C)=O)c1 | 0.86 log units |
| Cc1ccc(C(=O)N(C)C)cc1 | 2.27 log units |
| C1C2CC3CC1CC(C2)C31OOC12C1CC3CC(C1)CC2C3 (stereo not drawn) | 0.63 log units |
| CN=C(c1ccc([N+](=O)[O-])cc1)N(C)C | 1.99 log units |
| CN1CCCC1=O | 2.38 log units |
| CN(C)C(=O)CCl | 1.74 log units |
| CN(C)C(=O)N(c1ccccc1)c1ccccc1 | 2.08 log units |
| COc1ccc(C(=O)N(c2ccccc2)c2ccccc2)cc1 | 1.67 log units |
| C#CC(=O)OCC | 0.63 log units |
| O=C1CCCCCCCCCC1 | 1.2 log units |
| CN1CCC(Cl)CC1 | 1.7 log units |

| SMILES | pK_BHX (log10 Kf of the 1:1 H-bond complex with 4-fluorophenol, by FTIR) |
| --- | --- |
| Cc1cccc(C)c1[N+](=O)[O-] | 0.29 log units |
| FC12CC3CC(C1)CC(F)(C3)C2 | 0.0 log units |
| CCN(C=O)CC | 2.16 log units |
| O=c1cc(-c2ccccc2)oc2ccccc12 | 1.99 log units |
| COC=O | 0.65 log units |
| C(=NCc1ccccc1)c1ccccc1 | 1.18 log units |
| C1CSCS1 | -0.38 log units |
| c1ccc(N2CCCC2)cc1 | 0.16 log units |
| S=C1CCCCCN1 | 1.6 log units |
| CC(=Nc1ccc(Cl)cc1)Nc1ccc(Cl)cc1 | 1.07 log units |
| CCSC | 0.18 log units |
| CN=CN(C)C | 2.7 log units |
| COC(=O)C1CC1 | 1.12 log units |
| CC(=S)N(C)C | 1.22 log units |
| CCCCC(=O)CCCC | 1.21 log units |
| CC(=O)c1ccc(N=CN(C)C)cc1 | 1.7 log units and 1.52 log units |
| c1ccccc1 | -0.49 log units |
| NC12CC3CC(CC(C3)C1)C2 | 2.3 log units |
| CN(C)C1=CC(=O)CC(C)(C)C1 | 2.92 log units |
| CN(C)C(=S)c1ccccc1 | 1.02 log units |
| OCCc1ccccc1 | 0.97 log units |
| CC(=O)c1ccc(C(C)C)cc1 | 1.21 log units |
| c1cncnc1 | 1.07 log units |
| COc1ccc(N(C)C(=Nc2ccc(C)cc2)c2ccccc2)cc1 | 1.63 log units |
